Data reported in PMC4666608, “Metabolic Profiling of Chicken Embryos Exposed to Perfluorooctanoic Acid (PFOA) and Agonists to Peroxisome Proliferator-Activated Receptors” (PLoS ONE, 2015).
Values joined by “and” are separate entries in the source; they are usually repeats but may differ in a detail not shown here. Equal entries are not always repeated.

Assays:
[1] = tested on: chicken embryos; experiment: Embryo mortality after in ovo exposure (air sac injection E7, examined E12); type: in vivo, Gallus gallus domesticus
Description: Controls were injected with 20 μL vehicle only (DMSO).
Embryos were dissected and sampled on E12. The treatment group was concealed to the one carrying out embryo dissections and the order of dissection of the embryos was randomized. The embryos were examined for viability and gross morphology, e.g. appearance of the liver. The sex was determined by the presence of a pair of testes or an ovary.
Mortality rates were analyzed with Fisher’s exact test.

[2] = tested on: chicken embryos; experiment: Plasma lipids (total, LDL, HDL cholesterol, triacylglycerols), photometric; conditions: for HDL-C in plasma, mean ± SD / LDL-C in plasma, mean ± SD / LDL/HDL in plasma, mean ± SD / Total cholesterol in plasma, mean ± SD / Triacylglycerols in plasma, mean ± SD: E12; for LDL/HDL: plasma
Description: The experimental procedures in this study were approved by the Uppsala Ethical Committee for Research on Animals (Permit number C 211/12). Fertilized chicken eggs (Gallus gallus domesticus) were obtained from a local breeder (Ova Production AB, Vittinge, Sweden). The egg weights were 60 ± 4 g (mean and standard deviation). The eggs were incubated at 37.5°C and 60% relative humidity with automatic turning every six hours. The day the eggs were placed in the incubator was defined as embryonic day zero (E0). Chicken embryos were exposed to test substances by air sac injection in eggs incubated for seven days (E7). At this stage, the extraembryonic allantoic blood vessel network has grown to cover the inner shell membrane beneath the air sac and the injected substance will come in direct contact with the vascular network. The exposures were performed as follows: Unfertilized eggs and poorly developing embryos were recognized by candling and were sorted out. Eggs with embryos of normal size were collected and randomly distributed into the different treatment groups. On E7, the blunt end of each egg was wiped with alcohol and a small hole was drilled through the shell above the air sac. The dissolved test substance (20 μl) was deposited onto the inner shell membrane in the air sac and the hole was sealed with melted paraffin wax. Following injection, eggs were held horizontally and rotated for a few seconds to allow dispersal over the inner shell membrane in the air sac. Each egg was marked with a number specifying the treatment group and was placed at a random location in the incubator.
The doses were 150 μg/egg (approximately 2.5 mg/kg egg) for GW7647 and rosiglitazone and 50, 250 or 1000 μg/egg for PFOA (approximately 0.83, 4.2 and 18 mg/kg egg, respectively). Controls were injected with 20 μL vehicle only (DMSO). Due to the large number of embryos required, the experiment was divided into four replicate experiments (replicate A-D) performed the same way but on separate occasions. The number of exposed embryos was 10–15 for each treatment group and replicate.
A subset of randomly chosen embryos from each group (except the 1000 μg/egg group) was sampled for metabolomic analysis of allantoic fluid and blood plasma. Samples of allantoic fluid and blood were collected before decapitation and dissection of the embryo as described below. The egg shell was removed above the air cell without disrupting the inner shell membrane. Allantoic fluid was collected by gently inserting a needle through the inner shell membrane and into the allantoic sac and then aspiring the fluid with a syringe. The samples were placed in microtubes on ice during sampling and then stored at -70°C until processed for metabolomic analysis. Blood was collected from the allantoic artery, just proximal to its first branch. The artery was gently cleaned from membranes, lifted with a small spoon and then punctured with a needle. Blood flowing into the spoon was immediately collected with heparinized capillaries. Blood was stored in heparinized microtubes on ice during sampling and was then centrifuged at a speed of 1300g for 10 min at 4°C. Plasma was collected and stored at -70°C. The embryos were killed by decapitation and dissected immediately following blood sampling.
Total cholesterol, low-density lipoprotein (LDL) cholesterol, high-density lipoprotein (HDL) cholesterol, and triacylglycerols in plasma were analyzed with an Architect c8000 (Abbott Diagnostics, Abbott Park, IL, USA), using a photometric method, at the department of Clinical Chemistry and Pharmacology, Uppsala University Hospital, Sweden. The laboratory is accredited according to EN/ISO 15189 medical laboratory requirements. A total of 80 samples were analyzed; control: 7 females and 8 males; GW7647: 7 females and 8 males; rosiglitazone: 5 females and 12 males; 50 μg PFOA/egg: 11 females and 6 males; 250 μg PFOA/egg: 10 females and 6 males.

[3] = in ovo injection E7, sampled E12, 150 μg/egg
[4] = in ovo injection E7, sampled E12, PFOA 50 μg/egg
[5] = in ovo injection E7, sampled E12, PFOA 250 μg/egg
[6] = in ovo injection E7, sampled E12, PFOA 1000 μg/egg
[7] = group PFOA 50 (µg/egg), group mean
[8] = group PFOA 50 (µg/egg), individual embryos
[9] = group PFOA 250 (µg/egg), group mean
[10] = group PFOA 250 (µg/egg), individual embryos

SMILES: CC(C)(Sc1ccc(CCN(CCCCC2CCCCC2)C(=O)NC2CCCCC2)cc1)C(=O)O [GW7647, reference compound]
- Mortality rate [1, 3]: 0%
- Mortality rate, Ratio [1, 3]: 0/40
- HDL-C in plasma, mean ± SD ([2]; 150 μg/egg): 0.63 ± 0.05 mM
- LDL-C in plasma, mean ± SD ([2]; 150 μg/egg): 1.5 ± 0.2 mM
- LDL/HDL in plasma, mean ± SD ([2]; 150 μg/egg): 2.4 ± 0.4
- Total cholesterol in plasma, mean ± SD ([2]; 150 μg/egg): 5.5 ± 0.3 mM
- Triacylglycerols in plasma, mean ± SD ([2]; 150 μg/egg): 4.9 ± 0.7 mM

SMILES: CN(CCOc1ccc(CC2SC(=O)NC2=O)cc1)c1ccccn1 (stereo not shown) [Rosiglitazone, rosiglitazone, reference compound]
- Mortality rate [1, 3]: 5%
- Mortality rate, Ratio [1, 3]: 2/40
- HDL-C in plasma, mean ± SD ([2]; 150 μg/egg): 0.60 ± 0.06 mM
- LDL-C in plasma, mean ± SD ([2]; 150 μg/egg): 1.5 ± 0.2 mM
- LDL/HDL in plasma, mean ± SD ([2]; 150 μg/egg): 2.5 ± 0.4
- Total cholesterol in plasma, mean ± SD ([2]; 150 μg/egg): 5.2 ± 0.4 mM
- Triacylglycerols in plasma, mean ± SD ([2]; 150 μg/egg): 5.4 ± 0.8 mM
- HDL-Cholesterol in plasma ([2]; group mean): 0.60 mM
- LDL-Cholesterol in plasma ([2]; group mean): 1.5 mM
- Total Cholesterol in plasma ([2]; group mean): 5.2 mM
- Triacylglycerols in plasma ([2]; group mean): 5.4 mM
- LDL/HDL ([2]; group mean): 2.5
- HDL-Cholesterol in plasma ([2]; individual embryos): 0.65 mM and 0.59 mM and 0.53 mM and 0.58 mM and 0.55 mM and 0.71 mM and 0.6 mM and 0.7 mM and 0.57 mM and 0.51 mM and 0.69 mM and 0.52 mM and 0.61 mM
- LDL-Cholesterol in plasma ([2]; individual embryos): 2.00 mM and 1.70 mM and 1.20 mM and 1.50 mM and 1.10 mM and 1.60 mM and 1.40 mM and 1.00 mM and 1.80 mM
- Total Cholesterol in plasma ([2]; individual embryos): 5.8 mM and 4.8 mM and 4.1 mM and 5.4 mM and 4.9 mM and 5.5 mM and 5.9 mM and 5.2 mM and 5.3 mM and 5 mM and 5.6 mM
- Triacylglycerols in plasma ([2]; individual embryos): 4.5 mM and 4.3 mM and 4.7 mM and 6 mM and 5 mM and 5.3 mM and 5.6 mM and 4.6 mM and 7.1 mM and 6.3 mM and 6.4 mM and 5.5 mM
- LDL/HDL ([2]; individual embryos): 3.1 and 2.9 and 2.3 and 2.6 and 2.7 and 2.1 and 2.8 and 1.7 and 2.5 and 2.0 and 2.2 and 3.0 and 3.5

SMILES: O=C(O)C(F)(F)C(F)(F)C(F)(F)C(F)(F)C(F)(F)C(F)(F)C(F)(F)F [PFOA, perfluorooctanoic acid]
- Mortality rate ([1]; PFOA 1000 μg/egg, replicate A): 40%
- Mortality rate ([1]; PFOA 1000 μg/egg, replicate B): 60%
- Mortality rate ([1]; PFOA 1000 μg/egg, replicate C): 33%
- Mortality rate ([1]; PFOA 1000 μg/egg, replicate D): 7%
- Dose with increased mortality ([1]; exposed E7 to E12): 18 mg/kg egg
- Dose with no effect on survival (no effect level) ([1]; exposed E7 to E12): 4.2 mg/kg egg
- Mortality ([1]; follow-up study, PFOA 1000 μg/egg, N = 25, control 12%): 40%
- Mortality rate [1, 4]: 5%
- Mortality rate, Ratio [1, 4]: 2/40
- Mortality rate [1, 5]: 2.5%
- Mortality rate, Ratio [1, 5]: 1/40
- Mortality rate [1, 6]: 35% and 35 ^*** %
- Mortality rate, Ratio [1, 6]: 19/54
- HDL-C in plasma, mean ± SD ([2]; PFOA 50 μg/egg): 0.59 ± 0.06 mM
- LDL-C in plasma, mean ± SD ([2]; PFOA 50 μg/egg): 1.5 ± 0.2 mM
- LDL/HDL in plasma, mean ± SD ([2]; PFOA 50 μg/egg): 2.5 ± 0.3
- Total cholesterol in plasma, mean ± SD ([2]; PFOA 50 μg/egg): 5.2 ± 0.8 mM
- Triacylglycerols in plasma, mean ± SD ([2]; PFOA 50 μg/egg): 5.0 ± 0.8 mM
- HDL-C in plasma, mean ± SD ([2]; PFOA 250 μg/egg): 0.57 ± 0.05 mM
- LDL-C in plasma, mean ± SD ([2]; PFOA 250 μg/egg): 1.5 ± 0.3 mM
- LDL/HDL in plasma, mean ± SD ([2]; PFOA 250 μg/egg): 2.6 ± 0.5
- Total cholesterol in plasma, mean ± SD ([2]; PFOA 250 μg/egg): 5.0 ± 0.5 mM
- Triacylglycerols in plasma, mean ± SD ([2]; PFOA 250 μg/egg): 5.0 ± 0.7 mM
- HDL-Cholesterol in plasma [2, 7]: 0.59 mM
- LDL-Cholesterol in plasma [2, 7]: 1.5 mM
- Total Cholesterol in plasma [2, 7]: 5.2 mM
- Triacylglycerols in plasma [2, 7]: 5.0 mM
- LDL/HDL [2, 7]: 2.5
- HDL-Cholesterol in plasma [2, 8]: 0.63 mM and 0.53 mM and 0.55 mM and 0.69 mM and 0.59 mM and 0.56 mM and 0.65 mM and 0.49 mM and 0.62 mM and 0.64 mM and 0.48 mM and 0.58 mM
- LDL-Cholesterol in plasma [2, 8]: 1.90 mM and 1.20 mM and 1.50 mM and 1.80 mM and 1.40 mM and 1.30 mM and 1.60 mM and 1.00 mM
- Total Cholesterol in plasma [2, 8]: 6 mM and 4.6 mM and 5.1 mM and 5.7 mM and 5.9 mM and 5 mM and 5.4 mM and 6.1 mM and 3.8 mM and 5.3 mM and 4.3 mM and 4.2 mM and 4.1 mM
- Triacylglycerols in plasma [2, 8]: 6 mM and 4.8 mM and 5.1 mM and 5.7 mM and 5 mM and 4.9 mM and 5.4 mM and 4.5 mM and 6.2 mM and 4.2 mM and 3.6 mM and 3.5 mM
- LDL/HDL [2, 8]: 3.0 and 2.3 and 2.7 and 2.9 and 2.2 and 2.4 and 2.1 and 2.0 and 2.6 and 3.1 and 2.5
- HDL-Cholesterol in plasma [2, 9]: 0.57 mM
- LDL-Cholesterol in plasma [2, 9]: 1.5 mM
- Total Cholesterol in plasma [2, 9]: 5.0 mM
- Triacylglycerols in plasma [2, 9]: 5.0 mM
- LDL/HDL [2, 9]: 2.6
- HDL-Cholesterol in plasma [2, 10]: 0.52 mM and 0.54 mM and 0.49 mM and 0.56 mM and 0.55 mM and 0.57 mM and 0.51 mM and 0.64 mM and 0.58 mM and 0.61 mM and 0.63 mM and 0.53 mM and 0.6 mM
- LDL-Cholesterol in plasma [2, 10]: 2.20 mM and 1.40 mM and 1.50 mM and 1.10 mM and 1.20 mM and 1.80 mM and 1.30 mM and 1.70 mM and 1.60 mM
- Total Cholesterol in plasma [2, 10]: 5.2 mM and 4 mM and 4.9 mM and 5.7 mM and 5 mM and 5.4 mM and 4.2 mM and 4.4 mM and 4.7 mM and 5.1 mM
- Triacylglycerols in plasma [2, 10]: 5.1 mM and 5.7 mM and 3.8 mM and 4.5 mM and 6 mM and 4.7 mM and 5.4 mM and 4.8 mM and 4.2 mM and 4.9 mM
- LDL/HDL [2, 10]: 4.2 and 2.6 and 2.9 and 2.7 and 2.0 and 2.4 and 2.8 and 2.1 and 1.7 and 2.2
